From paper PMC11393688, “Design and synthesis of new 1,2,4-oxadiazole/quinazoline-4-one hybrids with antiproliferative activity as multitargeted inhibitors” (Frontiers in Chemistry, 2024)

How the values were obtained:
A-549 cells = test: Cell cycle analysis by flow cytometry; format: cell-based, human; settings: A-549, IC50 concentration, 24 h
Description: Compound 9b was investigated for its effects on cell cycle progression and apoptosis induction in A-549 cells. […] The cell line was labeled with PI/Annexin V, and flow cytometry was done with a BD FASC Caliber ([El-Sherief et al., 2018]).
Compound 9b was investigated for its effects on cell cycle progression and apoptosis induction in A-549 cells. […] The cell line was labeled with PI/Annexin V, and flow cytometry was done with a BD FASC Caliber ([El-Sherief et al., 2018]). See Supplementary Appendix A for more details.

[1] = system: lung cancer (A-549) cell line; test: Antiproliferative MTT assay, A-549; format: cell-based; settings: Homo sapiens, A549, A-549 lung cancer cells, read-out: Antiproliferative activity IC50 ± SEM A-549
Procedure: (§1) 4.2.1.2. Assay for antiproliferative effect
(§2) To explore the antiproliferative potential of compounds MTT assay was performed according to previously reported procedure using different cell lines to explore the antiproliferative potential of […]
(§3) calculate the total nuclear DNA, a fluorescent dye (propidium iodide, PI) is used which can attach to the DNA, thus offering a quick and precise technique. PI cannot pass through the cell membrane and its signal intensity can be considered as directly proportional to quantity of cellular DNA.
(§4) Cells whose cell membranes are damaged or have changed permeability are counted as dead ones.
(§5) The assay was performed by seeding the cells of different cell lines at a density of 3000-7500 cells/well (in 200µl medium) in culture plates followed by incubation for 24h at 37 °C in humidified 5% CO2/95% air atmospheric conditions. The medium was removed; the compounds were added to the plates at 10 µM concentrations (in 0.1% DMSO) in triplicates, followed by incubation for 48 h. DMSO (0.1%) was used as control. After incubation, medium was removed […]
(§6) 80 °C, the plates were allowed to freeze for 24 h, followed by thawing at 25 °C. […]
(§7) (Polar-Star BMG Tech) was used to record the readings at excitation and emission wavelengths of 530 and 620 nm for each well. The percentage cytotoxicity of compounds was calculated using […]
(§8) Where ATC= Absorbance of treated cells and AC= Absorbance of control. Erlotinib was used as positive control in the assay.

BRAF^V600E = target: T1, BRAF^V600E (Homo sapiens, UniProt P15056, V600E); test: BRAF^V600E kinase inhibitory assay; format: biochemical, Mouse; settings: read-out: BRAF^V600E inhibition IC50 ± SEM
T1 construct: Mouse full-length GST-tagged BRAFV600E; GST; purchased Invitrogen PV3849
Procedure: Refer to Supplementary Appendix A for more details. […]
4.2.1.4. BRAF kinase assay […]
against BRAF. Mouse full-length GST-tagged BRAFV600E (7.5 ng, Invitrogen, PV3849) was pre-incubated with drug (1 µL) and assay dilution buffer (4 µL) for 60 min at 25 °C. In assay dilution buffer, a solution (5 µL) containing MgCl2 (30 mM), ATP (200 µM), recombinant human full length (200 ng) […] N-terminal His-tagged MEK1 (Invitrogen) was added to start the assay, subsequent to incubation for 25 min at 25 °C. The assay was stopped using 5X protein denaturing buffer (LDS) solution (5 µL). To further denature the protein, heat (70° C) was applied for 5 min.
10 µL of each reaction was loaded into the precast plates and electrophoresis was allowed to proceed. After completion of electrophoresis, the front part of the precast gel plate (holding hot ATP) was cut and afterwards cast-off. The dried gel was developed using a phosphor screen. A […]
served as positive control. […]
(FITC) and propidium iodide (PI) staining kit (BD Pharmingen, San Diego, USA). […]
4.3. Statistical analysis
Computerized Prism 5 program was used to statistically analyzed data using one-way ANOVA test followed by Tukey’s as post ANOVA for multiple comparison at P ≤.05. Data were presented

[2] = system: four human cancer cell lines (HT-29, Panc-1, A-549, MCF-7); test: Average antiproliferative activity (GI50) over four cancer cell lines; format: cell-based; settings: average IC50 against the four cancer cell lines
Procedure: as §1, §2, §3, §4, §5, §6, §7, §8

T1 sequence (P15056 2-766 V600E limits assumed): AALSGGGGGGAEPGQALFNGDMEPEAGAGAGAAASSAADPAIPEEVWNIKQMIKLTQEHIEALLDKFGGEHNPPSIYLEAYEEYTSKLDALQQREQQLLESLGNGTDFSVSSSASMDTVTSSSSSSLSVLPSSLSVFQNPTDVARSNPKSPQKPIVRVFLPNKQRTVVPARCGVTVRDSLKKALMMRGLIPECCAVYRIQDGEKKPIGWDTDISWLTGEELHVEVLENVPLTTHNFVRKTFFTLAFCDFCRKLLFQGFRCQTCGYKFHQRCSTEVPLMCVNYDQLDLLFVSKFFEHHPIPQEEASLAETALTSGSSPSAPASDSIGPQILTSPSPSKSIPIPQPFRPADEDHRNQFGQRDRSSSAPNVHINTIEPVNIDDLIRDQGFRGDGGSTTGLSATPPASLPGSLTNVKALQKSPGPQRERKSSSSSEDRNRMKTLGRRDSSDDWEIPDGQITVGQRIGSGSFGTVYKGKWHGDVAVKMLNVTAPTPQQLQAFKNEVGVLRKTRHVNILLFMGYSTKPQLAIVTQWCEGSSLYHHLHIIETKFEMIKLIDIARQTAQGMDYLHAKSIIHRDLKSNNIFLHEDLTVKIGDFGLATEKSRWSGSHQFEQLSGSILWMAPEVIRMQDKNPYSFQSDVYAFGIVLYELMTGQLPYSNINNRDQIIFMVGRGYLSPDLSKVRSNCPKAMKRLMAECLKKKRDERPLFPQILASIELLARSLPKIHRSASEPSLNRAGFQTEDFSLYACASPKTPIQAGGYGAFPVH

IC50 [1]: 22 ± 2 nM
IC50 (BRAF^V600E): 48 ± 4 nM
GI50 [2]: 24 nM
Structure (SMILES): O=c1c2ccccc2nc(SCc2nc(-c3ccc(Cl)cc3)no2)n1-c1ccccc1 [Compound 9b, 2-((3-(4-Chlorophenyl)-1,2,4-oxadiazol-5-yl)methylthio)-3 phenylquinazolin-4(3H)-one]
Effect on cell cycle (A-549 cells): cell cycle arrest at the G2/M transition
